US20230219964A1, “ANTIBACTERIAL AND ANTIFUNGAL PLEUROMUTILIN CONJUGATES” (SYDDANSK UNIVERSITET, priority 2020, published 2023)
In brackets after ≈: the same amount, converted by molar mass.

Experiments:
[1] = system: vancomycin-resistant enterococci (VRE) cells, VRE 5; experiment: MIC in vitro broth micro-dilution assay, VRE 5; format: cell-based; conditions: lowest concentration to fully inhibit visible growth (OD600), clinical isolate, ampicillin, ciprofloxacin, vancomycin and linezolid resistant; for MIC: Enterococcus, VRE, read-out: in vitro susceptibility (MIC) VRE 5
Procedure: (§1) Bacterial susceptibility was established through an in vitro cell-based broth micro-dilution assay. To produce accurate and reproducible MIC-values, a procedure was used which follows the guidelines set by the Clinical and Laboratory Standards Institute (CLSI, USA) and the European Committee on Antimicrobial Susceptibility Testing (EUCAST). The micro-dilutions were carried out in 96-well plates, according to FIG. 3, wherein column 1 is a growth control, Columns 2 to 11 are dilutions of 1×, 2×, 4×, 8×, 16×, 32×, 64×, 128×, 256×, 512× respectively, and column 12 is a sterile control. To further increase the reliability of each susceptibility test, inoculation involved the use of three independent overnight cultures (ON1-ON3) thus giving rise to […]. Furthermore, each ON was added to two individual dilution rows, giving rise to […]. The standard inoculum was set to ˜5-10^5 colony-forming units (CFU) mL^−1. This was verified by dilution onto agar plates after each overall run.
(§2) The applied procedure was:
(§3) 1.1 MH or BHI agar plates for dilutions were created, 1 plate per overnight (ON) culture and MH or BHI media. 1.2 Day 1: Preparation of ON cultures of the bacterial strain in question, by inoculation of a single colony in 5 mL of MH or BHI media. Then incubation at 37° C. with aeration for approximately 16-20 hours. Biological triplicates were created by inoculation from 3 different colonies per strain.
(§4) 1.3 Day 2: A 96-well plate with the antibiotic/compound in question was prepared as according to FIG. 3: 1.4 In a 15 mL falcon tube, an appropriate volume of a 1000 μg/mL antibiotic/compound DMSO stock was diluted with MH or BHI media such that a 2× concentration and total volume of 10 mL was achieved. 1.5 A multi-channel pipette was used in the following. 1.6 Column 1 was used for growth control, so no antibiotic/compound was added to that column. 1.7 200 μl of 2× concentration of the antibiotic/compound was added to column 2. Technical duplicates were always created, thus 2 columns per ON culture. 1.8 100 μl of MH or BHI media was added to columns 1, 3-11 and 200 μl of MH or BHI media to column 12. 1.9 100 μl was transferred from column 2 to column 3. The same pipetting tips were used to transfer 100 μL from column 3 to 4. This scheme was repeated until column 11 where 100 μl was discarded after re-suspending. Column 12 was used as a sterile control, so no antibiotic/compound was added to that column. Each transferring involved pipetting up and down 5 to 7 times. 1.10 The plates were fully dried for CFU in the 42° C. incubator, 4× dilutions in triplicates per one plate.
(§5) 1.11 The optical density of bacterial cells in the ON culture was measured at wavelength 600 nm (OD600). Then the ON culture was diluted to an OD600=0.1. 1.12 Then the OD600 was re-measured to make certain that it was between 0.08 and 0.13. 1.13 The prepared 0.1 culture of 1.12 was diluted 100× more by transferring of 100 μl thereof, to 10 ml of MH or BHI media (enough for a 96-well plate). 1.14 Then 200 μl of the 100× dilution in 1.13 was transferred to Eppendorf tubes and kept cold until use. 1.15 100 μl of culture with an OD600 on approximately 0.001 was dispensed to each well of columns 1 to 11. 1.16 The plate was closed. Covered with aluminium foil and small holes were created with a 100-200 μL tip.
(§6) 1.17 The 96-well plate was then incubated at 37° C. with agitation and left for 16-hours.
(§7) 1.18 Verification of standard inoculum: The 100× diluted culture of 1.13 was used to create 10^−1 to 10^−4 dilutions in PBS/0.9% saline (100 μl sample to 900 μl PBS, mix well and continue until 10^−4). 1.19 10 μl of the 10^−2, 10^−3 and 10^−4 dilutions in 1.18 were spotted onto very dry MH or BHI plates in triplicates. 1.20 Then incubated overnight at 37° C. 1.21 The plates were examined manually or by using the plate reader.

[2] = system: E. faecalis cells; experiment: MIC in vitro broth micro-dilution assay, E. faecalis; format: cell-based, Enterococcus faecalis; conditions: lowest concentration to fully inhibit visible growth (OD600), clinical isolate; for MIC: Enterococcus faecalis, read-out: in vitro susceptibility (MIC) E. Faecalis
Procedure: as §1, §2, §3, §4, §5, §6, §7

[3] = system: vancomycin-resistant enterococci (VRE) cells, VRE 1; experiment: MIC in vitro broth micro-dilution assay, VRE 1; format: cell-based; conditions: lowest concentration to fully inhibit visible growth (OD600), clinical isolate, ampicillin, ciprofloxacin and vancomycin resistant; for MIC: Enterococcus, VRE, read-out: in vitro susceptibility (MIC) VRE 1
Procedure: as §1, §2, §3, §4, §5, §6, §7

[4] = system: Multi-resistant Staphylococcus aureus (MRSA) USA300 cells; experiment: MIC in vitro broth micro-dilution assay, MRSA USA300; format: cell-based; conditions: lowest concentration to fully inhibit visible growth (OD600), ATCC strain; for MIC: Staphylococcus aureus, read-out: in vitro susceptibility (MIC) MRSA USA3000
Procedure: as §1, §2, §3, §4, §5, §6, §7

[5] = system: S. pneumonia cells; experiment: MIC in vitro broth micro-dilution assay, S. pneumonia; format: cell-based, Streptococcus pneumonia; conditions: lowest concentration to fully inhibit visible growth (OD600), clinical isolate; for MIC: Streptococcus pneumoniae, read-out: in vitro susceptibility (MIC) S. Pneumonia
Procedure: as §1, §2, §3, §4, §5, §6, §7

Molecule | MIC [1] [µg/mL] | MIC [2] [µg/mL] | MIC [3] [µg/mL] | MIC [4] [µg/mL] | MIC [5] [µg/mL] | also measured
C=C[C@]1(C)C[C@@H](OC(=O)Cn2cc(-c3ccc(Cn4cnc5c(N6CCNCC6)ncnc54)cc3)nn2)[C@]2(C)[C@H](C)CC[C@]3(CCC(=O)[C@H]32)[C@@H](C)[C@@H]1O [C11, 22-[4-(4-((6-(piperazin-1-yl)-9H-purin-9-yl)methyl)phenyl)-1H-1,2,3-triazol-1-yl]-22-deoxypleuromutilin] | 0.12 (≈ 0.166 µM) | 0.12 (≈ 0.166 µM) | 0.06 (≈ 0.0831 µM) | 0.25 (≈ 0.346 µM) | 0.12 (≈ 0.166 µM) | 
C=C[C@]1(C)C[C@@H](OC(=O)Cn2cc(-c3cccc(Nc4ncnc5[nH]cnc45)c3)nn2)[C@]2(C)[C@H](C)CC[C@]3(CCC(=O)[C@H]32)[C@@H](C)[C@@H]1O [C18, 22-[4-(3-((9H-purin-6-yl)amino)phenyl)-1,2,3-triazole-1-yl]-22-deoxypleuromutilin] | 0.25 (≈ 0.391 µM) | 0.5 (≈ 0.783 µM) | 0.25 (≈ 0.391 µM) | 0.06 (≈ 0.0939 µM) | 0.5 (≈ 0.783 µM) | 
C=C[C@]1(C)C[C@@H](OC(=O)Cn2cc(-c3ccc(Cn4cnc5c(N)nc(F)nc54)cc3)nn2)[C@]2(C)[C@H](C)CC[C@]3(CCC(=O)[C@H]32)[C@@H](C)[C@@H]1O [C5, 22-[4-(4-((6-Amino-2-fluoro-9H-purin-9-yl)methyl)phenyl)-1H-1,2,3-triazol-1-yl]-22-deoxypleuromutilin] |  |  |  | 0.06 (≈ 0.0894 µM) |  | 
C=C[C@]1(C)C[C@@H](OC(=O)CSC2CC[C@@H](N)C[C@H]2O)[C@]2(C)[C@H](C)CC[C@]3(CCC(=O)[C@H]32)[C@@H](C)[C@@H]1O.CC(=O)O (stereo partly shown) [Lefamulin.Ac, reference compound] | 0.12 | 0.06 | 0.12 |  | 0.12 | 
C=C[C@]1(C)C[C@@H](OC(=O)Cn2cc(-c3cccc(Oc4nc(N)nc5[nH]cnc45)c3)nn2)[C@]2(C)[C@H](C)CC[C@]3(CCC(=O)[C@H]32)[C@@H](C)[C@@H]1O [C17, 22-[4-(3-((2-amino-9H-purin-6-yl)oxy)phenyl)-1,2,3-triazole-1-yl]-22-deoxypleuromutilin] |  |  |  | 0.12 (≈ 0.183 µM) |  | 
C=C[C@]1(C)C[C@@H](OC(=O)Cn2cc(-c3ccc(CN4C(=O)c5ccccc5C4=O)cc3)nn2)[C@]2(C)[C@H](C)CC[C@]3(CCC(=O)[C@H]32)[C@@H](C)[C@@H]1O [C2, 22-[4-(4-((N-phthalimide)methyl)phenyl)-1H-1,2,3-triazol-1-yl]-22-deoxypleuromutilin] | > 8 | 8 (≈ 12 µM) | > 8 | 0.25 (≈ 0.376 µM) | 4 (≈ 6.02 µM) | 
C=C[C@]1(C)C[C@@H](CC(=O)Cn2cc(-c3cccc(-n4cnc5c(N)ncnc54)c3)nn2)[C@]2(C)[C@H](C)CC[C@]3(CCC(=O)[C@H]32)[C@@H](C)[C@@H]1O [prior art compound 7, reference compound] |  |  |  | 0.06 (≈ 0.0942 µM) |  | 
C=C[C@]1(C)C[C@@H](OC(=O)Cn2cc(-c3cccc(NC(=O)c4ccccc4)c3)nn2)[C@]2(C)[C@H](C)CC[C@]3(CCC(=O)[C@H]32)[C@@H](C)[C@@H]1O [C14, 22-[4-(3-benzamidophenyl)-1,2,3-triazole-1-yl]-22-deoxypleuromutilin] |  |  |  | 0.5 (≈ 0.8 µM) |  | 
Valnemulin [reference compound] |  |  |  |  |  | in vitro susceptibility (MIC) VRE 5 [1]: 0.015 µg/mL; in vitro susceptibility (MIC) E. Faecalis [2]: 0.03 µg/mL; in vitro susceptibility (MIC) VRE 1 [3]: 0.03 µg/mL; in vitro susceptibility (MIC) MRSA USA3000 [4]: 0.06 µg/mL; in vitro susceptibility (MIC) S. Pneumonia [5]: 0.06 to 0.12 µg/mL
C=C[C@]1(C)C[C@@H](CC(=O)Cn2cc(-c3ccc(-n4cnc5c(N)ncnc54)cc3)nn2)[C@]2(C)[C@H](C)CC[C@]3(CCC(=O)[C@H]32)[C@@H](C)[C@@H]1O [prior art compound 8, reference compound] |  |  |  | 0.5 (≈ 0.785 µM) |  | 
C=C[C@]1(C)C[C@@H](OC(=O)Cn2cc(-c3ccc(CO)cc3)nn2)[C@]2(C)[C@H](C)CC[C@]3(CCC(=O)[C@H]32)[C@@H](C)[C@@H]1O [C4, 22-[4-(4-(hydroxymethyl)phenyl)-1H-1,2,3-triazol-1-yl]-22-deoxypleuromutilin] | 1 (≈ 1.87 µM) | 2 (≈ 3.73 µM) | 1 (≈ 1.87 µM) | 0.25 (≈ 0.467 µM) | 4 (≈ 7.47 µM) | 
C=C[C@]1(C)C[C@@H](OC(=O)Cn2cc(-c3cccc(NC(=O)c4ccc(OC)cc4)c3)nn2)[C@]2(C)[C@H](C)CC[C@]3(CCC(=O)[C@H]32)[C@@H](C)[C@@H]1O [C15, 22-[4-(3-(4-methoxybenzamido)phenyl)-1,2,3-triazole-1-yl]-22-deoxypleuromutilin] | 0.25 (≈ 0.382 µM) | 0.25 (≈ 0.382 µM) | 0.12 (≈ 0.183 µM) | 0.12 (≈ 0.183 µM) | 0.25 (≈ 0.382 µM) | 
C=C[C@]1(C)C[C@@H](OC(=O)Cn2cc(-c3ccc(Cn4cnc5c(N6CCNCC6)ncnc54)nc3)nn2)[C@]2(C)[C@H](C)CC[C@]3(CCC(=O)[C@H]32)[C@@H](C)[C@@H]1O [C10, 22-[4-(6-((6-(piperazin-1-yl)-9H-purin-9-yl)methyl)pyridin-3-yl)-1H-1,2,3-triazol-1-yl]-22-deoxypleuromutilin] | 0.12 (≈ 0.166 µM) | 0.03 (≈ 0.0415 µM) | 0.03 (≈ 0.0415 µM) | 0.12 to 0.25 (≈ 0.166 to 0.346 µM) | 0.03 (≈ 0.0415 µM) | 
C=C[C@]1(C)C[C@@H](OC(=O)Cn2cc(-c3ccc(Cn4cnc5c(N)ncnc54)c(O)c3)nn2)[C@]2(C)[C@H](C)CC[C@]3(CCC(=O)[C@H]32)[C@@H](C)[C@@H]1O [C9, 22-[4-(4-((6-amino-9H-purin-9-yl)methyl)-3-hydroxyphenyl)-1H-1,2,3-triazol-1-yl]-22-deoxypleuromutilin] | 0.25 (≈ 0.374 µM) | 0.25 (≈ 0.374 µM) | 0.25 (≈ 0.374 µM) | 0.03 (≈ 0.0449 µM) | 0.25 (≈ 0.374 µM) | 
C=C[C@]1(C)C[C@@H](OC(=O)Cn2cc(-c3ccc(Cn4cc(C)c(=O)[nH]c4=O)cc3)nn2)[C@]2(C)[C@H](C)CC[C@]3(CCC(=O)[C@H]32)[C@@H](C)[C@@H]1O [C20, 22-[4-(4-((Thymine-1-yl)methyl)phenyl)-1,2,3-triazol-1-yl]-22-deoxypleuromutilin] | 0.5 (≈ 0.777 µM) | 1 (≈ 1.55 µM) | 0.5 (≈ 0.777 µM) | 0.12 (≈ 0.186 µM) | 1 (≈ 1.55 µM) | 
C=C[C@]1(C)C[C@@H](OC(=O)Cn2cc(-c3cccc(Oc4ncnc5[nH]cnc45)c3)nn2)[C@]2(C)[C@H](C)CC[C@]3(CCC(=O)[C@H]32)[C@@H](C)[C@@H]1O [C16, 22-[4-(3-((9H-purin-6-yl)oxy)phenyl)-1,2,3-triazole-1-yl]-22-deoxypleuromutilin] |  |  |  | 0.12 (≈ 0.188 µM) |  | 
